How the values were obtained:
[1] = molecular target: T1, Human Indoleamine 2,3-dioxygenase (IDO) (Homo sapiens, UniProt P14902); assay: Human IDO enzymatic assay (kynurenine level); type: biochemical; details: 6 nM IDO, 10 μM L-Trp; geometric mean; read-out: IDO1 GMean: IC50 (μM) (Biochemical Assay)
T1 construct: His tag (N); made in house; host or cells: E. coli
Experimental: (§1) Human Indoleamine 2,3-dioxygenase (IDO) and Tryptophan 2,3-dioxygenase (TDO) enzymatic assay
(§2) Human IDO or TDO with N-terminal His tag is purified in E. coli. The IDO enzymatic assay is performed using 6 nM IDO and 10 μM L-Trp in the presence of 10 mM ascorbic acid, 5 μM methylene blue, 100 nM catalase and 0.01% Tween 20 in 50 mM sodium phosphate buffer (pH 6.5). 19 μL of above reaction mixture is added to wells of 384 well reaction plate containing […] of various concentrations of test compound or DMSO vehicle and incubated for 20 minutes at room temperature. The TDO enzymatic reaction assay is performed using 1 nM TDO and 350 μM L-Trp in the presence of 10 mM ascorbic acid, 0.4 μM methylene blue, 100 nM catalase and 0.01% Tween 20 in 50 mM sodium phosphate buffer (pH 6.5). 19 μL of above reaction mixture is added to wells of 384 well reaction plate containing 1 μL of various concentrations of test compound or DMSO vehicle and incubated for 70 minutes at room temperature. 16 wells containing all the components of reaction mixture and 5% DMSO serve as high control. 16 well containing all the components except enzyme of reaction mixture and 5% DMSO serves as low control. Both IDO and TDO enzymatic reactions are stopped by addition of […] of 30% TCA and incubated 30 minutes at 50° C. to hydrolyze N-formylkynurenine produced by IDO or TDO to kynurenine. Upon measuring the kynurenine level, the percentage inhibition is calculated at individual concentrations relative to high and low controls. The data is analyzed by using nonlinear regression to generate IC50 values.

[2] = molecular target: T2, Human Tryptophan 2,3-dioxygenase (TDO) (Homo sapiens, UniProt P48775); assay: Human TDO enzymatic assay (kynurenine level); type: biochemical; details: 1 nM TDO, 350 μM L-Trp; geometric mean; read-out: TDO GMean: IC50 (μM) (Biochemical Assay)
T2 construct: His tag (N); made in house; host or cells: E. coli
Experimental: as §1, §2

T2 sequence (P48775 whole entry): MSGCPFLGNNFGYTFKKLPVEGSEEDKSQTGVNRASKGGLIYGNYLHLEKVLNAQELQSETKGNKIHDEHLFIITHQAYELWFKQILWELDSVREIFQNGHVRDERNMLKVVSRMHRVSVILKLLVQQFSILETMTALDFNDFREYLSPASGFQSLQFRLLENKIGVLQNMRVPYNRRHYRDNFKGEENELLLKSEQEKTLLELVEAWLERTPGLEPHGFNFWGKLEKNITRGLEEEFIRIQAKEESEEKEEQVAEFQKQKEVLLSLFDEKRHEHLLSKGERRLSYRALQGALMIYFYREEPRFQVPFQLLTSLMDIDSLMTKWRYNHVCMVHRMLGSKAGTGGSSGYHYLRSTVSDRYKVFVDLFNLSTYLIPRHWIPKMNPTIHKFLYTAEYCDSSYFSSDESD
T1 sequence (P14902 whole entry): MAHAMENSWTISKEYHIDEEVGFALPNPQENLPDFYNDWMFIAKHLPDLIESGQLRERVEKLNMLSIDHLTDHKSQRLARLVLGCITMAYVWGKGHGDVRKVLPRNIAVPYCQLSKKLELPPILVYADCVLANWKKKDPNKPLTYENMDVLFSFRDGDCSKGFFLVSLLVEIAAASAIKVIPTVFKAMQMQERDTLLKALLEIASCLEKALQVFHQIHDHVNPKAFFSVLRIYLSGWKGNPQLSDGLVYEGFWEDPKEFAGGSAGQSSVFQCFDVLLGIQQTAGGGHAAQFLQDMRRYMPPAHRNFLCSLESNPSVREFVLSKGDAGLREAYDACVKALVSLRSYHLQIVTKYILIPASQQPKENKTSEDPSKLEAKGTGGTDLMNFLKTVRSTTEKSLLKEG

| IC50 [1] | IC50 [2] | SMILES |
| --- | --- | --- |
| 0.0001 to 10 µM | 0.0001 to 10 µM | CC(C)(C1CCN(C(=O)CN2CCOCC2)CC1)C(O)c1cc(Cl)cc2[nH]ncc12 (stereo not drawn) [Compound P-0609, 1-(4-(1-(6-chloro-1H-indazol-4-yl)-1-hydroxy-2-methylpropan-2-yl)piperidin-1-yl)-2-morpholinoethan-1-one] |
| 0.0001 to 10 µM | 0.0001 to 10 µM | CC(C)(C1CCN(C(=O)CC2CCS(=O)(=O)CC2)CC1)C(O)c1cc(Cl)cc2[nH]ncc12 (stereo not drawn) [Compound P-0610, 1-(4-(1-(6-chloro-1H-indazol-4-yl)-1-hydroxy-2-methylpropan-2-yl)piperidin-1-yl)-2-(1,1-dioxidotetrahydro-2H-thiopyran-4-yl)ethan-1-one] |
| 0.0001 to 10 µM | 0.0001 to 10 µM | O=C(C1CC1)N1CCC(C(F)(F)[C@H](O)c2c3c(cc4cn[nH]c24)CC3)CC1 [Compound P-0611, (R)-cyclopropyl(4-(2-(5,6-dihydro-1H-cyclobuta[f]indazol-7-yl)-1,1-difluoro-2-hydroxyethyl)piperidin-1-yl)methanone] |
| 0.0001 to 10 µM | 0.0001 to 10 µM | CCC(=O)N1CCC(C(F)(F)[C@H](O)c2c3c(cc4cn[nH]c24)CC3)CC1 [Compound P-0612, (R)-1-(4-(2-(5,6-dihydro-1H-cyclobuta[f]indazol-7-yl)-1,1-difluoro-2-hydroxyethyl)piperidin-1-yl) propan-1-one] |
| 0.0001 to 10 µM | 0.0001 to 10 µM | N#CCC(=O)N1CCC(C(F)(F)[C@H](O)c2c3c(cc4cn[nH]c24)CC3)CC1 [Compound P-0613, (R)-3-(4-(2-(5,6-dihydro-1H-cyclobuta[f]indazol-7-yl)-1,1-difluoro-2-hydroxyethyl)piperidin-1-yl)-3-oxopropanenitrile] |
| 0.0001 to 10 µM | 0.0001 to 10 µM | COCC(=O)N1CCC(C(F)(F)[C@H](O)c2c3c(cc4cn[nH]c24)CC3)CC1 [Compound P-0614, (R)-1-(4-(2-(5,6-dihydro-1H-cyclobuta[f]indazol-7-yl)-1,1-difluoro-2-hydroxyethyl)piperidin-1-yl)-2-methoxyethan-1-one] |
| 0.0001 to 10 µM | 0.0001 to 10 µM | O=C(CO)N1CCC(C(F)(F)[C@H](O)c2c3c(cc4cn[nH]c24)CC3)CC1 [Compound P-0615, (R)-1-(4-(2-(5,6-dihydro-1H-cyclobuta[f]indazol-7-yl)-1,1-difluoro-2-hydroxyethyl)piperidin-1-yl)-2-hydroxyethan-1-one] |
| 0.0001 to 10 µM | 10 to 100 µM | CC1(C)C(C(=O)N2CCC(C(F)(F)[C@H](O)c3c4c(cc5cn[nH]c35)CC4)CC2)C1(C)C [Compound P-0616, (R)-(4-(2-(5,6-dihydro-1H-cyclobuta[f]indazol-7-yl)-1,1-difluoro-2-hydroxyethyl)piperidin-1-yl)(2,2,3,3-tetramethylcyclopropyl) methanone] |
| 0.0001 to 10 µM | 0.0001 to 10 µM | O=C(CC1CCOCC1)N1CCC(C(F)(F)[C@H](O)c2c3c(cc4cn[nH]c24)CC3)CC1 [Compound P-0617, (R)-1-(4-(2-(5,6-dihydro-1H-cyclobuta[f]indazol-7-yl)-1,1-difluoro-2-hydroxyethyl)piperidin-1-yl)-2-(tetrahydro-2H-pyran-4-yl)ethan-1-one] |
| 0.0001 to 10 µM | 0.0001 to 10 µM | O=C(C1CCOCC1)N1CCC(C(F)(F)[C@H](O)c2c3c(cc4cn[nH]c24)CC3)CC1 [Compound P-0618, (R)-(4-(2-(5,6-dihydro-1H-cyclobuta[f]indazol-7-yl)-1,1-difluoro-2-hydroxyethyl)piperidin-1-yl)(tetrahydro-2H-pyran-4-yl)methanone] |
| 0.0001 to 10 µM | 0.0001 to 10 µM | O=C(c1cccnc1)N1CCC(C(F)(F)[C@H](O)c2c3c(cc4cn[nH]c24)CC3)CC1 [Compound P-0619, (R)-(4-(2-(5,6-dihydro-1H-cyclobuta[f]indazol-7-yl)-1,1-difluoro-2-hydroxyethyl)piperidin-1-yl) (pyridin-3-yl)methanone] |
| 0.0001 to 10 µM | 0.0001 to 10 µM | O=C(c1ccc(C(F)(F)F)nc1)N1CCC(C(F)(F)[C@H](O)c2c3c(cc4cn[nH]c24)CC3)CC1 [Compound P-0620, (R)-(4-(2-(5,6-dihydro-1H-cyclobuta[f]indazol-7-yl)-1,1-difluoro-2-hydroxyethyl)piperidin-1-yl)(6-(trifluoromethyl)pyridin-3-yl)methanone] |
| 0.0001 to 10 µM | 0.0001 to 10 µM | O=C(c1ccc(Cl)cn1)N1CCC(C(F)(F)[C@H](O)c2c3c(cc4cn[nH]c24)CC3)CC1 [Compound P-0621, (R)-(5-chloropyridin-2-yl)(4-(2-(5,6-dihydro-1H-cyclobuta[f]indazol-7-yl)-1,1-difluoro-hydroxyethyl)piperidin-1-yl) methanone] |
| 0.0001 to 10 µM | 0.0001 to 10 µM | O=C(CN1CCOCC1)N1CCC(C(F)(F)[C@H](O)c2c3c(cc4cn[nH]c24)CC3)CC1 [Compound P-0622, (R)-1-(4-(2-(5,6-dihydro-1H-cyclobuta[f]indazol-7-yl)-1,1-difluoro-2-hydroxyethyl)piperidin-1-yl)-2-morpholinoethan-1-one] |
| 0.0001 to 10 µM | 0.0001 to 10 µM | O=C(CN1CCS(=O)(=O)CC1)N1CCC(C(F)(F)[C@H](O)c2c3c(cc4cn[nH]c24)CC3)CC1 [Compound P-0623, (R)-1-(4-(2-(5,6-dihydro-1H-cyclobuta[f]indazol-7-yl)-1,1-difluoro-2-hydroxyethyl)piperidin-1-yl)-2-(1,1-dioxidothiomorpholino) ethan-1-one] |
| 0.0001 to 10 µM | 0.0001 to 10 µM | O=C(CC1CCS(=O)(=O)CC1)N1CCC(C(F)(F)[C@H](O)c2c3c(cc4cn[nH]c24)CC3)CC1 [Compound P-0624, (R)-1-(4-(2-(5,6-dihydro-1H-cyclobuta[f]indazol-7-yl)-1,1-difluoro-2-hydroxyethyl)piperidin-1-yl)-2-(1,1-dioxidotetrahydro-2H-thiopyran-4-yl)ethan-1-one] |
| 0.0001 to 10 µM | 0.0001 to 10 µM | O=C(Cc1ccc(F)c(Cl)c1)N1CCC(C(F)(F)[C@H](O)c2c3c(cc4cn[nH]c24)CC3)CC1 [Compound P-0625, (R)-2-(3-chloro-4-fluorophenyl)-1-(4-(2-(5,6-dihydro-1H-cyclobuta[f]indazol 7-yl)-1,1-difluoro-2-hydroxyethyl)piperidin-1-yl) ethan-1-one] |
| 0.0001 to 10 µM | 0.0001 to 10 µM | O=C(Cc1ccc(Cl)c(F)c1)N1CCC(C(F)(F)[C@H](O)c2c3c(cc4cn[nH]c24)CC3)CC1 [Compound P-0626, (R)-2-(4-chloro-3-fluorophenyl)-1-(4-(2-(5,6-dihydro-1H-cyclobuta[f]indazol-7-yl)-1,1-difluoro-2-hydroxyethyl)piperidin-1-yl) ethan-1-one] |
| 0.0001 to 10 µM | 0.0001 to 10 µM | CCNC(=O)N1CCC(C(F)(F)[C@H](O)c2c3c(cc4cn[nH]c24)CC3)CC1 [Compound P-0627, (R)-4-(2-(5,6-dihydro-1H-cyclobuta[f]indazol-7-yl)-1,1-difluoro-2-hydroxyethyl)-N-ethylpiperidine-1-carboxamide] |
| 0.0001 to 10 µM | 0.0001 to 10 µM | O=C(NC1CC1)N1CCC(C(F)(F)[C@H](O)c2c3c(cc4cn[nH]c24)CC3)CC1 [Compound P-0628, (R)-N-cyclopropyl-4-(2-(5,6-dihydro-1H-cyclobuta[f]indazol-7-yl)-1,1-difluoro-2-hydroxyethyl) piperidine-1-carboxamide] |
| 0.0001 to 10 µM | 0.0001 to 10 µM | O=C(NC1CCC1)N1CCC(C(F)(F)[C@H](O)c2c3c(cc4cn[nH]c24)CC3)CC1 [Compound P-0629, (R)-N-cyclobutyl-4-(2-(5,6-dihydro-1H-cyclobuta[f]indazol-7-yl)-1,1-difluoro-2-hydroxyethyl) piperidine-1-carboxamide] |
| 0.0001 to 10 µM | 0.0001 to 10 µM | COCCNC(=O)N1CCC(C(F)(F)[C@H](O)c2c3c(cc4cn[nH]c24)CC3)CC1 [Compound P-0630, (R)-4-(2-(5,6-dihydro-1H-cyclobuta[f]indazol-7-yl)-1,1-difluoro-2-hydroxyethyl)-N-(2-methoxyethyl) piperidine-1-carboxamide] |
| 0.0001 to 10 µM | 0.0001 to 10 µM | O=C(NCC1CC1)N1CCC(C(F)(F)[C@H](O)c2c3c(cc4cn[nH]c24)CC3)CC1 [Compound P-0631, (R)-N-(cyclopropylmethyl)-4-(2-(5,6-dihydro-1H-cyclobuta[f]indazol-7-yl)-1,1-difluoro-2-hydroxyethyl) piperidine-1-carboxamide] |
| 0.0001 to 10 µM | 0.0001 to 10 µM | O=C(Nc1cccnc1)N1CCC(C(F)(F)[C@H](O)c2c3c(cc4cn[nH]c24)CC3)CC1 [Compound P-0636, (R)-4-(2-(5,6-dihydro-1H-cyclobuta[f]indazol-7-yl)-1,1-difluoro-2-hydroxyethyl)-N-(pyridin-3-yl)piperidine-1-carboxamide] |
